Measurements: paper PMC6273635, “Synthesis and Structure-Activity Relationships of Imidazole-Coumarin Conjugates against Hepatitis C Virus” (Molecules, 2016)
Read-outs that look alike come from different tables or passages of the source.

Experiments:
[1] = Anti-metabolic effect on host cell metabolism (MTS method) in Huh 5-2 replicon cells; assay type: cell-based; conditions: human, Huh 5-2 cells (HCV genotype 1b subgenomic replicon), concentration reducing host cell metabolism by 50%, average of triplicate determinations
Description: (§1) The antiviral activity of conjugated compounds 3a–g, 7a–e, 9a,b,d–f, and 11b,e,f in the HCV genotype 1b subgenomic Huh 5-2 replicon system was evaluated according to established procedures. On the basis of the dose-response curves that were obtained, the concentration of a compound that inhibited virus replication by 50% (i.e., EC50) and the concentration of compound that reduced host cell metabolism by 50% (i.e., CC50) were obtained. These values subsequently allowed us to calculate the selectivity index (i.e., SI = CC50/EC50), which is a measure for the therapeutic window of the compound in an assay system. […] The observed antiviral effect of other compounds was most likely related mainly to the pleiotropic or aspecific effect on the host cell.

[2] = system: HCV genotype 1b subgenomic Huh 5-2 replicon system; assay: Antiviral effect on HCV 1b subgenomic replicon replication in Huh 5-2 cells; assay type: cell-based, Hepatitis C virus
Description: as §1

Huh 5-2 cells [3] = system: Huh 5-2 cells; set-up: method as in PMID 17977606; conditions: host cell metabolism, MTS method, reference known compounds, ref [11]; cited from earlier work
[4] = system: HCV genotype 1b subgenomic Huh 5-2 replicon system; set-up: method as in PMID 17977606; conditions: HCV 1b subgenomic replicon in Huh 5-2 cells; reference known compounds; ref [11]; cited from earlier work
Huh 5-2 cells [5] = assay: Anti-metabolic effect on host cell metabolism (MTS method) in Huh 5-2 replicon cells; assay type: cell-based; conditions: concentration reducing host cell metabolism by 50%, average of triplicate determinations
Description: as §1

SMILES | melting point | CC50 [1] | EC50 ([2]; Hepatitis C virus, Huh-5-2) | CC50 (Huh 5-2 cells [3]) | EC50 [4] | CC50 (Huh 5-2 cells [5]) | EC50 ([2]; concentration inhibiting virus replication by 50%, real-time quantitative RT-PCR, HCV 1b Huh 5-2 replicon, average of triplicate determinations, read-out: EC50)
O=c1oc2ccccc2cc1CSc1ncc[nH]1 [Compound 3a, 2-[(Coumarin-3’-yl)methylthio]imidazole] | 252 to 252.8 °C | 122 µM | 30 µM | – | – | – | –
O=c1oc2ccc(F)cc2cc1CSc1ncc[nH]1 [Compound 3b, 2-[(6′-Fluorocoumarin-3′-yl)methylthio]imidazole] | 258.6 to 259.4 °C | 83 µM | 7.2 µM | – | – | – | –
O=c1oc2ccc(Cl)cc2cc1CSc1ncc[nH]1 [Compound 3c, 2-[(6′-Chlorocoumarin-3′-yl)methylthio]imidazole] | 266.2 to 270 °C | 85 µM | 9.7 µM | – | – | – | –
O=c1oc2ccc(Br)cc2cc1CSc1ncc[nH]1 [Compound 3d, 2-[(6′-Bromocoumarin-3′-yl)methylthio]imidazole] | 276.8 to 277.4 °C | 75 µM | 5.1 µM | – | – | – | –
COc1cccc2cc(CSc3ncc[nH]3)c(=O)oc12 [Compound 3e, 2-[(8′-Methoxycoumarin-3′-yl)methylthio]imidazole] | 269.8 to 270.6 °C | 173 µM | 8.4 µM | – | – | – | –
Cn1ccnc1SCc1cc2ccccc2oc1=O [Compound 3f, 1-Methyl-2-[(coumarin-3′-yl)methylthio]imidazole] | 244.2 to 244.8 °C | 49 µM | 6.7 µM | – | – | – | –
Cn1ccnc1SCc1cc2cc(Cl)ccc2oc1=O [Compound 3g, 1-Methyl-2-[(6′-chlorocoumarin-3′-yl)methylthio]imidazole] | 256.2 to 257.2 °C | 75 µM | 15 µM | – | – | – | –
O=c1oc2ccccc2cc1CSc1nccn1[C@@H]1O[C@H](CO)[C@@H](O)[C@H]1O [Compound 7a, 1-(β-D-Ribofuranos-1″-yl)-2-[(coumarin-3′-yl)methylthio]imidazole] | 164.6 to 165.4 °C | 128 µM | 59 µM | – | – | – | –
O=c1oc2ccc(F)cc2cc1CSc1nccn1[C@@H]1O[C@H](CO)[C@@H](O)[C@H]1O [Compound 7b, 1-(β-D-Ribofuranos-1″-yl)-2-[(6′-fluorocoumarin-3′-yl)methylthio]imidazole] | 171.2 to 172.4 °C | 122 µM | 26 µM | – | – | – | –
O=c1oc2ccc(Cl)cc2cc1CSc1nccn1[C@@H]1O[C@H](CO)[C@@H](O)[C@H]1O [Compound 7c, 1-(β-D-Ribofuranos-1″-yl)-2-[(6′-chlorocoumarin-3′-yl)methylthio]imidazole] | 178.8 to 179.6 °C | 85 µM | 14 µM | – | – | – | –
O=c1oc2ccc(Br)cc2cc1CSc1nccn1[C@@H]1O[C@H](CO)[C@@H](O)[C@H]1O [Compound 7d, 1-(β-D-Ribofuranos-1″-yl)-2-[(6′-bromocoumarin-3′-yl)methylthio]imidazole] | 188.8 to 189.4 °C | 107 µM | 19 µM | – | – | – | –
COc1cccc2cc(CSc3nccn3[C@@H]3O[C@H](CO)[C@@H](O)[C@H]3O)c(=O)oc12 [Compound 7e, 1-(β-D-Ribofuranos-1″-yl)-2-[(8′-methoxycoumarin-3′-yl)methylthio]imidazole] | 169.6 to 170.4 °C | 119 µM | 34 µM | – | – | – | –
O=c1oc2ccccc2cc1CSc1nc2c(=O)[nH]cnc2n1[C@@H]1O[C@H](CO)[C@@H](O)[C@H]1O [Compound 9a, 8-[(Coumarin-3′-yl)methylthio]inosine] | – | 109 µM | 61 µM | – | – | – | –
O=c1oc2ccc(F)cc2cc1CSc1nc2c(=O)[nH]cnc2n1[C@@H]1O[C@H](CO)[C@@H](O)[C@H]1O [Compound 9b, 8-[(6′-Fluorocoumarin-3′-yl)methylthio]inosine] | – | 105 µM | 73 µM | – | – | – | –
O=c1oc2ccc(Br)cc2cc1CSc1nc2c(=O)[nH]cnc2n1[C@@H]1O[C@H](CO)[C@@H](O)[C@H]1O [Compound 9d, 8-[(6′-Bromocoumarin-3′-yl)methylthio]inosine] | – | 93 µM | 70 µM | – | – | – | –
COc1cccc2cc(CSc3nc4c(=O)[nH]cnc4n3[C@@H]3O[C@H](CO)[C@@H](O)[C@H]3O)c(=O)oc12 [Compound 9e, 8-[(8′-Methoxycoumarin-3′-yl)methylthio]inosine] | – | 102 µM | 102 µM | – | – | – | –
Cc1ccc2oc(=O)c(CSc3nc4c(=O)[nH]cnc4n3[C@@H]3O[C@H](CO)[C@@H](O)[C@H]3O)cc2c1 [Compound 9f, 8-[(6′-Methylcoumarin-3′-yl)methylthio]inosine] | – | 106 µM | 106 µM | – | – | – | –
Nc1nc2c(nc(SCc3cc4cc(F)ccc4oc3=O)n2[C@@H]2O[C@H](CO)[C@@H](O)[C@H]2O)c(=O)[nH]1 [Compound 11b, 8-[(6′-Fluorocoumarin-3′-yl)methylthio]guanosine] | – | 102 µM | 102 µM | – | – | – | –
COc1cccc2cc(CSc3nc4c(=O)[nH]c(N)nc4n3[C@@H]3O[C@H](CO)[C@@H](O)[C@H]3O)c(=O)oc12 [Compound 11e, 8-[(8′-Methoxycoumarin-3′-yl)methylthio]guanosine] | – | 99 µM | 99 µM | – | – | – | –
Cc1ccc2oc(=O)c(CSc3nc4c(=O)[nH]c(N)nc4n3[C@@H]3O[C@H](CO)[C@@H](O)[C@H]3O)cc2c1 [Compound 11f, 8-[(6′-Methylcoumarin-3′-yl)methylthio]guanosine] | – | 103 µM | 103 µM | – | – | – | –
O=c1oc2ccccc2cc1CSc1nc2ccccc2[nH]1 [Compound 12a] | – | – | – | 90 µM | 27 µM | – | –
O=c1oc2ccc(Br)cc2cc1CSc1nc2ccccc2[nH]1 [Compound 12d] | – | – | – | 42 µM | 4 µM | – | –
COc1cccc2cc(CSc3nc4ccccc4[nH]3)c(=O)oc12 [Compound 12e] | – | – | – | 27 µM | 10 µM | – | –
O=c1ccc2ccccc2o1 [coumarin] | – | > 500 µM | > 150 µM | – | – | – | –
c1c[nH]cn1 [imidazole] | – | – | – | – | – | > 500 µM | > 150 µM
